# Assay results from patent US8192962B2, “Processes for detecting toxic substances” (Daikin Industries, Ltd., priority 2001, dated 2012).
# Test system: Unknown protein yeast genes
# Experiment: DNA chip mRNA expression in yeast, unknown protein yeast genes (Table 1)
# Type: cell-based, Saccharomyces cerevisiae S288C
# Summary of the method: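 First, S288C yeast grown in YPD at 25° C. are dosed in log phase with one toxicant (growth-inhibiting, not lethal) for 2 h. Next, total RNA is extracted and poly(A) mRNA isolated and reverse-transcribed with Cy3/Cy5-dUTP. Finally, whole-genome chip fluorescence is read relative to unexposed cells.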
compound,measurement,setting,value
"[Cl][Hg][Cl] [(3), HgCl2]",The level of expressed mRNA in the presence of chemical substance/The level of expressed mRNA in the absence of chemical substance,"yeast gene YAL053W, incubated two hours with chemical substance",1.3
same,The level of expressed mRNA in the presence of chemical substance/The level of expressed mRNA in the absence of chemical substance,yeast gene YBL048W,2.3
same,The level of expressed mRNA in the presence of chemical substance/The level of expressed mRNA in the absence of chemical substance,yeast gene YBL107C,0.4
same,The level of expressed mRNA in the presence of chemical substance/The level of expressed mRNA in the absence of chemical substance,"yeast gene YDL072C, incubated two hours with chemical substance",3.5
same,The level of expressed mRNA in the presence of chemical substance/The level of expressed mRNA in the absence of chemical substance,"yeast gene YDL204W, incubated two hours with chemical substance",4.8
same,The level of expressed mRNA in the presence of chemical substance/The level of expressed mRNA in the absence of chemical substance,"yeast gene YDL222C, incubated two hours with chemical substance",1.5
same,The level of expressed mRNA in the presence of chemical substance/The level of expressed mRNA in the absence of chemical substance,"yeast gene YDR330W, incubated two hours with chemical substance",1.2
same,The level of expressed mRNA in the presence of chemical substance/The level of expressed mRNA in the absence of chemical substance,"yeast gene YDR411C, incubated two hours with chemical substance",1.8
same,The level of expressed mRNA in the presence of chemical substance/The level of expressed mRNA in the absence of chemical substance,"yeast gene YDR511W, incubated two hours with chemical substance",0.9
same,The level of expressed mRNA in the presence of chemical substance/The level of expressed mRNA in the absence of chemical substance,"yeast gene YDR545W, incubated two hours with chemical substance",0.6
same,The level of expressed mRNA in the presence of chemical substance/The level of expressed mRNA in the absence of chemical substance,"yeast gene YEL001C, incubated two hours with chemical substance",1.4
same,The level of expressed mRNA in the presence of chemical substance/The level of expressed mRNA in the absence of chemical substance,"yeast gene YER004W, incubated two hours with chemical substance",1.9
same,The level of expressed mRNA in the presence of chemical substance/The level of expressed mRNA in the absence of chemical substance,"yeast gene YER035W, incubated two hours with chemical substance",1.6
same,The level of expressed mRNA in the presence of chemical substance/The level of expressed mRNA in the absence of chemical substance,"yeast gene YER079W, incubated two hours with chemical substance",1.9
same,The level of expressed mRNA in the presence of chemical substance/The level of expressed mRNA in the absence of chemical substance,"yeast gene YER106W, incubated two hours with chemical substance",1.3
same,The level of expressed mRNA in the presence of chemical substance/The level of expressed mRNA in the absence of chemical substance,"yeast gene YER158C, incubated two hours with chemical substance",0.9
same,The level of expressed mRNA in the presence of chemical substance/The level of expressed mRNA in the absence of chemical substance,"yeast gene YER163C, incubated two hours with chemical substance",1.2
same,The level of expressed mRNA in the presence of chemical substance/The level of expressed mRNA in the absence of chemical substance,"yeast gene YER175C, incubated two hours with chemical substance",1.3
same,The level of expressed mRNA in the presence of chemical substance/The level of expressed mRNA in the absence of chemical substance,"yeast gene YFL006W, incubated two hours with chemical substance",1.6
same,The level of expressed mRNA in the presence of chemical substance/The level of expressed mRNA in the absence of chemical substance,"yeast gene YFL010C, incubated two hours with chemical substance",1.3
same,The level of expressed mRNA in the presence of chemical substance/The level of expressed mRNA in the absence of chemical substance,yeast gene YFL024C,1.1
same,The level of expressed mRNA in the presence of chemical substance/The level of expressed mRNA in the absence of chemical substance,"yeast gene YFL032W, incubated two hours with chemical substance",1.6
same,The level of expressed mRNA in the presence of chemical substance/The level of expressed mRNA in the absence of chemical substance,"yeast gene YGL037C, incubated two hours with chemical substance",6.5
same,The level of expressed mRNA in the presence of chemical substance/The level of expressed mRNA in the absence of chemical substance,"yeast gene YGL047W, incubated two hours with chemical substance",1.6
same,The level of expressed mRNA in the presence of chemical substance/The level of expressed mRNA in the absence of chemical substance,"yeast gene YGL053W, incubated two hours with chemical substance",1.2
same,The level of expressed mRNA in the presence of chemical substance/The level of expressed mRNA in the absence of chemical substance,yeast gene YGL121C,1.4
same,The level of expressed mRNA in the presence of chemical substance/The level of expressed mRNA in the absence of chemical substance,"yeast gene YGL199C, incubated two hours with chemical substance",1.7
same,The level of expressed mRNA in the presence of chemical substance/The level of expressed mRNA in the absence of chemical substance,"yeast gene YGR101W, incubated two hours with chemical substance",1.2
same,The level of expressed mRNA in the presence of chemical substance/The level of expressed mRNA in the absence of chemical substance,yeast gene YGR110W,2.2
same,The level of expressed mRNA in the presence of chemical substance/The level of expressed mRNA in the absence of chemical substance,"yeast gene YGR130C, incubated two hours with chemical substance",0.6
same,The level of expressed mRNA in the presence of chemical substance/The level of expressed mRNA in the absence of chemical substance,"yeast gene YGR154C, incubated two hours with chemical substance",2.2
same,The level of expressed mRNA in the presence of chemical substance/The level of expressed mRNA in the absence of chemical substance,"yeast gene YGR221C, incubated two hours with chemical substance",0.9
same,The level of expressed mRNA in the presence of chemical substance/The level of expressed mRNA in the absence of chemical substance,"yeast gene YHR138C, incubated two hours with chemical substance",2.2
same,The level of expressed mRNA in the presence of chemical substance/The level of expressed mRNA in the absence of chemical substance,"yeast gene YHR199C, incubated two hours with chemical substance",3.2
same,The level of expressed mRNA in the presence of chemical substance/The level of expressed mRNA in the absence of chemical substance,"yeast gene YIL023C, incubated two hours with chemical substance",2.1
same,The level of expressed mRNA in the presence of chemical substance/The level of expressed mRNA in the absence of chemical substance,"yeast gene YIL041W, incubated two hours with chemical substance",2.1
same,The level of expressed mRNA in the presence of chemical substance/The level of expressed mRNA in the absence of chemical substance,"yeast gene YIL087C, incubated two hours with chemical substance",3.4
same,The level of expressed mRNA in the presence of chemical substance/The level of expressed mRNA in the absence of chemical substance,"yeast gene YJL057C, incubated two hours with chemical substance",1.6
same,The level of expressed mRNA in the presence of chemical substance/The level of expressed mRNA in the absence of chemical substance,"yeast gene YJL066C, incubated two hours with chemical substance",1.2
same,The level of expressed mRNA in the presence of chemical substance/The level of expressed mRNA in the absence of chemical substance,"yeast gene YJL082W, incubated two hours with chemical substance",2.4
same,The level of expressed mRNA in the presence of chemical substance/The level of expressed mRNA in the absence of chemical substance,"yeast gene YJL151C, incubated two hours with chemical substance",3.2
same,The level of expressed mRNA in the presence of chemical substance/The level of expressed mRNA in the absence of chemical substance,"yeast gene YJL152W, incubated two hours with chemical substance",1.8
same,The level of expressed mRNA in the presence of chemical substance/The level of expressed mRNA in the absence of chemical substance,"yeast gene YJL161W, incubated two hours with chemical substance",1.5
same,The level of expressed mRNA in the presence of chemical substance/The level of expressed mRNA in the absence of chemical substance,"yeast gene YJL171C, incubated two hours with chemical substance",2.8
same,The level of expressed mRNA in the presence of chemical substance/The level of expressed mRNA in the absence of chemical substance,"yeast gene YJR008W, incubated two hours with chemical substance",1.2
same,The level of expressed mRNA in the presence of chemical substance/The level of expressed mRNA in the absence of chemical substance,"yeast gene YJR054W, incubated two hours with chemical substance",0.3
same,The level of expressed mRNA in the presence of chemical substance/The level of expressed mRNA in the absence of chemical substance,yeast gene YKL071W,5.4
same,The level of expressed mRNA in the presence of chemical substance/The level of expressed mRNA in the absence of chemical substance,"yeast gene YKL086W, incubated two hours with chemical substance",2.4
same,The level of expressed mRNA in the presence of chemical substance/The level of expressed mRNA in the absence of chemical substance,"yeast gene YKL151C, incubated two hours with chemical substance",1.7
same,The level of expressed mRNA in the presence of chemical substance/The level of expressed mRNA in the absence of chemical substance,"yeast gene YKL153W, incubated two hours with chemical substance",2.0
